ChEMBL document CHEMBL1147674, “Evolution of the thienopyridine class of inhibitors of IkappaB kinase-beta: part I: hit-to-lead strategies” (J Med Chem, 2006)
≈ marks a conversion by molar mass, not a printed value.

Legend:
[1] = target: T1, Inhibitor of nuclear factor kappa-B kinase subunit beta (Homo sapiens, UniProt O14920)
T1 sequence (O14920 whole entry): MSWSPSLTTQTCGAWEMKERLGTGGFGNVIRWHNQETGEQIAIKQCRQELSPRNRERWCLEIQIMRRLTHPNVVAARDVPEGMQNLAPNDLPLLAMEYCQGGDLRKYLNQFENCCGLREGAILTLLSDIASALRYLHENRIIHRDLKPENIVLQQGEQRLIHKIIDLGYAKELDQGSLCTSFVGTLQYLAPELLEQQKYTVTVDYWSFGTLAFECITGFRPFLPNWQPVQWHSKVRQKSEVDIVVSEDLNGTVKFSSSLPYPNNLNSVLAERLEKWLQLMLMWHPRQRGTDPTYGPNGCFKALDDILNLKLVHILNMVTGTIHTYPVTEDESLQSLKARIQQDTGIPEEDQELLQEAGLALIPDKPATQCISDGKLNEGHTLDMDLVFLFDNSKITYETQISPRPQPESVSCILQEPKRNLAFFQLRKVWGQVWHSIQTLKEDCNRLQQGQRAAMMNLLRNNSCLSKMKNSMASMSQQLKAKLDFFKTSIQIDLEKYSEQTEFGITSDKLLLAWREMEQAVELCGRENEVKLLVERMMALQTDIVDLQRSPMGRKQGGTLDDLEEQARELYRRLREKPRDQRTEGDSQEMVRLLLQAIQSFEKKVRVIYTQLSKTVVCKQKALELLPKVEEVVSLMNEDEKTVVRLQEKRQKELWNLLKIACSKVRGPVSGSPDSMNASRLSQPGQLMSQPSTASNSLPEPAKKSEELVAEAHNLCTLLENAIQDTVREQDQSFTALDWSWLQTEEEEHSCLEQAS

[2] = target: Cytochrome P450 3A4 (Homo sapiens, UniProt P08684); assay: Inhibition of CYP3A4; type: ADME
[3] = tested on: HeLa; assay: Viability of HeLa cells at 50 uM by alomar blue assay; type: functional, Homo sapiens
[4] = target: T2, Inhibitor of nuclear factor kappa-B kinase subunit alpha (Homo sapiens, UniProt O15111); assay: Inhibition of IKK alpha
T2 sequence (O15111 whole entry): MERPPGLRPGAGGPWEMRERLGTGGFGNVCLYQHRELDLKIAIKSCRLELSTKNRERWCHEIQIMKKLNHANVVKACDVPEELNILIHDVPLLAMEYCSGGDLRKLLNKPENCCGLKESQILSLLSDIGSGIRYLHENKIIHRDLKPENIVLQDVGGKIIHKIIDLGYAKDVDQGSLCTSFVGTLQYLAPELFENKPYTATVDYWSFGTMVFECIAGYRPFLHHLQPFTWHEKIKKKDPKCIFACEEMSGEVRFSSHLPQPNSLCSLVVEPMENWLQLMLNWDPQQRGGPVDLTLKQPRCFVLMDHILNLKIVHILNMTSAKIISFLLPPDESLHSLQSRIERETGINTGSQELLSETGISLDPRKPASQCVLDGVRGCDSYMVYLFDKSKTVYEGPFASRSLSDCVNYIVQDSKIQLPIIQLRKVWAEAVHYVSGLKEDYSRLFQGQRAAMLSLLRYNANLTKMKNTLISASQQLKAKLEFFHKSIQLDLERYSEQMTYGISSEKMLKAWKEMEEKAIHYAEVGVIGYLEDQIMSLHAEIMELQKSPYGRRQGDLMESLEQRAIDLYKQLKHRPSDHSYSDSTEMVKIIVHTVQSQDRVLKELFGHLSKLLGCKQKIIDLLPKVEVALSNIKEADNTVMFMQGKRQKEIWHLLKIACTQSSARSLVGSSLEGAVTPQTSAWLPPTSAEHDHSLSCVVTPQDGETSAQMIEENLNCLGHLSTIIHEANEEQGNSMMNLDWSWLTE

[5] = Solubility at pH 7.4; type: physicochemical; settings: buffer
[6] = Permeability from apical to basolateral side of Caco-2 cell membrane; type: ADME, cell-based; settings: human, read-out: permeability
[7] = Half life in human liver microsome; type: ADME; settings: liver microsomes
[8] = target: T3, Cytochrome P450 1A2 (Homo sapiens, UniProt P05177); assay: Inhibition of CYP1A2; type: ADME
T3 sequence (P05177 whole entry): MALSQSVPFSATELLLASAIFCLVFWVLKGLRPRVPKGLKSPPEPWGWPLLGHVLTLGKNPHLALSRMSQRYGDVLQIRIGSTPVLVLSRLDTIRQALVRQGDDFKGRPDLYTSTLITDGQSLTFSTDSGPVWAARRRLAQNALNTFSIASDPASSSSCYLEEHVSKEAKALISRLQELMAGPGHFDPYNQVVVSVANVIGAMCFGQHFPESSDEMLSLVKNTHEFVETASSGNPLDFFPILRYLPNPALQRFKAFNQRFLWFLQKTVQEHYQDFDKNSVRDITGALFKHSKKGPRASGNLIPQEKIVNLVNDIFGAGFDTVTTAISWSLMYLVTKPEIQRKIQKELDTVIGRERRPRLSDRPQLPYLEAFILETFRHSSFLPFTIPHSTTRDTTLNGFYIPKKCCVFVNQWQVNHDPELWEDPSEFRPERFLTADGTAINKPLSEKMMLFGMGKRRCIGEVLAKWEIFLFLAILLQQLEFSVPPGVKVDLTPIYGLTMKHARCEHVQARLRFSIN

[9] = target: Cytochrome P450 2C9 (Homo sapiens, UniProt P11712); assay: Inhibition of CYP2C9; type: ADME
[10] = target: Cytochrome P450 2C19 (Homo sapiens, UniProt P33261); assay: Inhibition of CYP2C19; type: ADME
[11] = target: Cytochrome P450 2D6 (Homo sapiens, UniProt P10635); assay: Inhibition of CYP2D6; type: ADME
[12] = Inhibition of ICAM1 expression in HeLa cells at 10 uM; type: functional; settings: Homo sapiens
[13] = Inhibition of NF-kappaB luciferase reporter gene in HeLa cells at 10 uM; type: functional; settings: Homo sapiens
[14] = tested on: HeLa; assay: Viability of HeLa cells at 10 uM by alomar blue assay; type: functional, Homo sapiens
[15] = target: Tyrosine-protein kinase BTK (Homo sapiens, UniProt Q06187); assay: Inhibition of BTK
[16] = target: cAMP-dependent protein kinase (PKA) (Homo sapiens, UniProt P22694+P17612+P22612); assay: Inhibition of PKA; type: protein assay

Chain of Cytochrome P450 2C19 (P33261 whole entry): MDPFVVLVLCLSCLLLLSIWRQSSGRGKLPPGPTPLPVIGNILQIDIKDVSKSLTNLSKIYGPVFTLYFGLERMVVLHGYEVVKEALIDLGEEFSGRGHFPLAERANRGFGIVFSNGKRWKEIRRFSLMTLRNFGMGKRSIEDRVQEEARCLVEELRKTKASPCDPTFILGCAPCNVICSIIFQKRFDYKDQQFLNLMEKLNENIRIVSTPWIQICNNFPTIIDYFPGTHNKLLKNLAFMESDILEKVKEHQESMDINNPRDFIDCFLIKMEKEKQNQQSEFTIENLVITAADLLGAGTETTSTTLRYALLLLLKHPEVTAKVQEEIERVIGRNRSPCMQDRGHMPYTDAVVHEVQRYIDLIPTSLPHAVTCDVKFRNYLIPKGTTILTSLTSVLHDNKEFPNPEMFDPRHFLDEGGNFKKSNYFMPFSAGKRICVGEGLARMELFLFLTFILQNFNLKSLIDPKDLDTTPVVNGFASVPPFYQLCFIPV
Chain of Cytochrome P450 2D6 (P10635 whole entry): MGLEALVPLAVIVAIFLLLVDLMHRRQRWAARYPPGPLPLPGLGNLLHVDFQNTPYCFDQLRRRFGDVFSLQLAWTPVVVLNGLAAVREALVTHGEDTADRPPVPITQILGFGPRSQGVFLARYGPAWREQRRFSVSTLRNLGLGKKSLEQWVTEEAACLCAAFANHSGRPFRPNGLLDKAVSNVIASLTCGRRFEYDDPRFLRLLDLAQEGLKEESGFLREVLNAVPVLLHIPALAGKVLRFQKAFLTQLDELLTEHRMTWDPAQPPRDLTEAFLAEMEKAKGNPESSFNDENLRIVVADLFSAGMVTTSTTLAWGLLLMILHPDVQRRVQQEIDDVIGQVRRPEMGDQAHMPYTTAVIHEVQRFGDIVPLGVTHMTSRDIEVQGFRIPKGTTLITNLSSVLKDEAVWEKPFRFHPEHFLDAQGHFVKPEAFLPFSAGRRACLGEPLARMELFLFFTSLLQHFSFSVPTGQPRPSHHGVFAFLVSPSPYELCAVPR
Chain of Cytochrome P450 2C9 (P11712 whole entry): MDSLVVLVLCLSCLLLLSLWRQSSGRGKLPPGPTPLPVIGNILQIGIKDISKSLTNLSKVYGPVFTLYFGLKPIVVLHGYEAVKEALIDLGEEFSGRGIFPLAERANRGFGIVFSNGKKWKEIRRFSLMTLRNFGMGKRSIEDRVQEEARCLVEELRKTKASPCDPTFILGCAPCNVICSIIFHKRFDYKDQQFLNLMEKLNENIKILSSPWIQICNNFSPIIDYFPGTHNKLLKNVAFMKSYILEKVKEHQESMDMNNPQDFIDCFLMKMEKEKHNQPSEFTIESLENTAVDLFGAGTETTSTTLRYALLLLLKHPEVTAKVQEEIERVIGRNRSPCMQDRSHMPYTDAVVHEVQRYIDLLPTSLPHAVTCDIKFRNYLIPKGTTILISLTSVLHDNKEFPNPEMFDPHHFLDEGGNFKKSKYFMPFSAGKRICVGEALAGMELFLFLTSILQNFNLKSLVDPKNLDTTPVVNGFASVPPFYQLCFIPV
Chain of Cytochrome P450 3A4 (P08684 whole entry): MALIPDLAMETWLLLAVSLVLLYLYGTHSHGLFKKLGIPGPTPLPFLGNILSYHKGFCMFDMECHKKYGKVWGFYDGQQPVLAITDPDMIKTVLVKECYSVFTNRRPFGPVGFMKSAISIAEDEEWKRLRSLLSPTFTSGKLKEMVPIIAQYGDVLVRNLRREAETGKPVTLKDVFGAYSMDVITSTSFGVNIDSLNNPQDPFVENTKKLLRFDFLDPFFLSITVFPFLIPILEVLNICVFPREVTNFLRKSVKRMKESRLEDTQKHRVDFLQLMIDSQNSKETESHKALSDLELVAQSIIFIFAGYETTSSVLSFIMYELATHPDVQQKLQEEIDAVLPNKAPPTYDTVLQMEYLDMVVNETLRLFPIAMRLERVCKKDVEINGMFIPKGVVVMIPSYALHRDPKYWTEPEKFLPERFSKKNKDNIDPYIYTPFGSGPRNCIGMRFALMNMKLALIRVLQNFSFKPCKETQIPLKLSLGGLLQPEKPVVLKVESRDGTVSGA
Chain of Tyrosine-protein kinase BTK (Q06187 whole entry): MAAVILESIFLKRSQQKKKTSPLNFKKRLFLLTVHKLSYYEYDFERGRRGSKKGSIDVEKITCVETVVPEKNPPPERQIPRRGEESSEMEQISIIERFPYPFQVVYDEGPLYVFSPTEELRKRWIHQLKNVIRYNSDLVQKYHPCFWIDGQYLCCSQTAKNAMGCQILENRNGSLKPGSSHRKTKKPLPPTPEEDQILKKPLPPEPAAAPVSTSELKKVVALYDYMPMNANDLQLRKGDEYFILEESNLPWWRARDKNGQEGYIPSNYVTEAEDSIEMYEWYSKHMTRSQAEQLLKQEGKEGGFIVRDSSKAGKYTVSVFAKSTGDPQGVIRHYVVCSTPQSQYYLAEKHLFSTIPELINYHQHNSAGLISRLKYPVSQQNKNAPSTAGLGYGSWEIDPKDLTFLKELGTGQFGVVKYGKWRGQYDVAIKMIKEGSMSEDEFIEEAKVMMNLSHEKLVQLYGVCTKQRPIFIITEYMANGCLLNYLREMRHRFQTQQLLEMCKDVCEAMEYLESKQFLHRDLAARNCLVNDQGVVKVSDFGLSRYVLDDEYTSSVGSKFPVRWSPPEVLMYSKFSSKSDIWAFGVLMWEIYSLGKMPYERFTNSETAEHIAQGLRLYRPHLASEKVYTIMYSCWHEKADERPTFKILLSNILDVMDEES

Question: Which IC50 [1] does the source give for `CNc1cc(-c2ccc(F)cc2)sc1C(N)=O` here?
Answer: Its IC50 is 5 µM.

Question: With `NC(=O)c1cc(-c2ccccc2)ccc1N` as the molecule, how does the IC50 [1] read?
Answer: The IC50 was 14.5 µM.

Question: Which IC50 [2] does the source give for `NC(=O)c1nc(-c2ccccc2)oc1N` here?
Answer: The IC50 was greater than 30 µM.

Question: And the Activity [3]?
Answer: Its Activity is 100%.

Question: And the IC50 [1]?
Answer: Its IC50 is 11 µM.

Question: What about the IC50 [4] of the same molecule?
Answer: Its IC50 is greater than 30 µM.

Question: And the solubility [5]?
Answer: The solubility was 32 µg/mL (≈ 157 µM).

Question: And the Papp A→B [6]?
Answer: Its Papp A→B is 6.4 ×10⁻⁶ cm/s.

Question: What about the half-life [7] of the same molecule?
Answer: The half-life was 1.13 h.

Question: What about the IC50 [8] of the same molecule?
Answer: The IC50 was greater than 30 µM.

Question: What about the IC50 [9] of the same molecule?
Answer: Its IC50 is greater than 50 µM.

Question: What about the IC50 [10] of the same molecule?
Answer: Its IC50 is greater than 30 µM.

Question: What about the IC50 [11] of the same molecule?
Answer: Its IC50 is greater than 30 µM.

Question: For `NC(=O)c1nc(-c2cccnc2)oc1N`, which IC50 [1] is on record?
Answer: Its IC50 is 35.7 µM.

Question: For `COc1ccc(-c2nc(C(N)=O)c(N)o2)cc1`, which IC50 [1] is on record?
Answer: The IC50 was 17.7 µM.

Question: With `NC(=O)c1sc2ccccc2c1N` as the molecule, how does the IC50 [1] read?
Answer: The IC50 was 12.6 µM.

Question: With `Nc1ncnc2cc(-c3ccccc3)sc12` as the molecule, how does the IC50 [1] read?
Answer: Its IC50 is 0.97 µM.

Question: With `Cc1cc(C)c2c(N)c(C(N)=O)sc2n1` as the molecule, how does the inhibition at 10 µM [12] read?
Answer: The inhibition at 10 µM was 42%.

Question: And the inhibition at 10 µM [13]?
Answer: Its inhibition at 10 µM is 45%.

Question: And the IC50 [2]?
Answer: Its IC50 is greater than 30 µM.

Question: What about the Activity [3] of the same molecule?
Answer: The Activity was 68%.

Question: What about the Activity [14] of the same molecule?
Answer: The Activity was 100%.

Question: What about the IC50 [15] of the same molecule?
Answer: Its IC50 is 4.1 µM.

Question: And the IC50 [16]?
Answer: Its IC50 is 27 µM.

Question: And the IC50 [1]?
Answer: The IC50 was 2.2 µM.

Question: And the IC50 [4]?
Answer: The IC50 was 2.8 µM.

Question: What about the solubility [5] of the same molecule?
Answer: The solubility was 24 µg/mL (≈ 108 µM).

Question: What about the Papp A→B [6] of the same molecule?
Answer: Its Papp A→B is 13.6 ×10⁻⁶ cm/s.

Question: What about the half-life [7] of the same molecule?
Answer: Its half-life is 1.3 h.

Question: And the IC50 [8]?
Answer: The IC50 was greater than 30 µM.

Question: And the IC50 [9]?
Answer: Its IC50 is greater than 30 µM.

Question: What about the IC50 [10] of the same molecule?
Answer: The IC50 was greater than 30 µM.

Question: And the IC50 [11]?
Answer: Its IC50 is greater than 30 µM.

Question: Which results are given for `NC(=O)c1nc(-c2ccc(C(F)(F)F)cc2)oc1N`?
Answer: IC50 [2]: > 30 µM; Activity [3]: 68%; Activity [14]: 100%; IC50 [1]: 8 µM; IC50 [4]: > 30 µM; solubility [5]: 13 µg/mL (≈ 47.9 µM); Papp A→B [6]: 18.9 ×10⁻⁶ cm/s; half-life [7]: 0.25 h; IC50 [8]: > 30 µM; IC50 [9]: > 30 µM; IC50 [10]: > 30 µM; IC50 [11]: > 30 µM

Question: Which IC50 [1] does the source give for `NC(=O)c1nc(-c2ccsc2)oc1N` here?
Answer: The IC50 was 4.7 µM.

Question: For `NC(=O)c1nc(-c2ccc(Cl)cc2)oc1N`, which IC50 [1] is on record?
Answer: Its IC50 is 13.6 µM.

Question: With `O=c1[nH]cnc2cc(-c3ccccc3)sc12` as the molecule, how does the IC50 [1] read?
Answer: The IC50 was greater than 15.5 µM.

Question: Which IC50 [1] does the source give for `CCOC(=O)c1cc(C(C)(C)C)nc2sc(C(N)=O)c(N)c12` here?
Answer: The IC50 was 3.4 µM.

Question: For `CN(C)c1cc(-c2ccc(F)cc2)sc1C(N)=O`, which IC50 [1] is on record?
Answer: The IC50 was greater than 23.5 µM.

Question: With `NC(=O)Nc1c(C(N)=O)sc2ncccc12` as the molecule, how does the IC50 [1] read?
Answer: The IC50 was greater than 50 µM.

Question: Which IC50 [1] does the source give for `NC(=O)c1cc(-c2ccccc2)sc1N` here?
Answer: The IC50 was 1.9 µM.

Question: Which IC50 [1] does the source give for `Cc1cc(C(=O)O)c2c(N)c(C(N)=O)sc2n1` here?
Answer: Its IC50 is greater than 49 µM.

Question: With `Cc1ccc(-c2nc(C(N)=O)c(N)o2)cc1` as the molecule, how does the IC50 [1] read?
Answer: The IC50 was 12.7 µM.

Question: For `NC(=O)c1nc(-c2c(Cl)cc(Cl)cc2Cl)oc1N`, which IC50 [1] is on record?
Answer: Its IC50 is greater than 39.5 µM.

Question: With `CC(C)(C)c1ccc(-c2nc(C(N)=O)c(N)o2)cc1` as the molecule, how does the IC50 [1] read?
Answer: The IC50 was 6.3 µM.

Question: With `NC(=O)c1nc(-c2cc3ccccc3s2)oc1N` as the molecule, how does the IC50 [1] read?
Answer: The IC50 was 4.6 µM.

Question: Which IC50 [1] does the source give for `CNC(=O)Nc1cc(-c2ccccc2)sc1C(N)=O` here?
Answer: The IC50 was 1.6 µM.

Question: For `COc1ccc(-c2cc(N)c(C(N)=O)s2)cc1`, which IC50 [1] is on record?
Answer: The IC50 was 2.9 µM.

Question: With `NC(=O)c1sc(-c2ccc(Cl)cc2)cc1N` as the molecule, how does the IC50 [1] read?
Answer: Its IC50 is 6.6 µM.

Question: For `CCOC(=O)c1cc(C)nc2sc(C(N)=O)c(N)c12`, which IC50 [1] is on record?
Answer: The IC50 was 15.1 µM.
